According to patent US7585892B2, “Compound for promoting the growth of neural cells” (Naturewise Biotech & Medicals Corporation, priority 2006, dated 2009):

Key:
Type in all cases: cell-based, Wistar rat
neural stem cells [1] = experiment: Differentiation of NSCs from neurospheres, MAP-2 immunofluorescent staining (Example 5); conditions: added in the beginning, with or without adding again at seeding; 3 days + 3 days
Protocol: In the beginning of cultivating NSCs, either compound A or EGF was added into the growth media. The cells were cultivated for 3 days and the cells would aggregate to form neurospheres. One hundred μl of the cell suspension was aspirated and diluted to 1 ml. 250 μl of the supernatant which contained neurospheres was aspirated and placed on the cover slides coated with 30 μg/ml poly-D-lysine (Sigma). After all the cells had been attached onto the slides, the media was removed and replaced with the cultivating media containing compound A (FIG. 5A), EGF (FIG. 5C), or none of the growth factors (FIG. 5B, compound A in the beginning; FIG. 5D, EGF in the beginning). The cells were cultivated for another 3 days at the same condition as described above so that the cells would differentiate into cortical neurons.
The cells were stained with a known immunofluorescent staining method. To stain the neurons, a neurological marker of MAP-2 (microtubule-associated protein 2) antibody was used as the primary antibody and a fluorescent material-labeled mouse immunoglobulin that identified primary antibody was used as the second antibody. After the primary antibody that had been bound onto the neurons was identified and bound by the secondary antibody, the neurons emit fluorescent light under the excitation of a specific light source.

neural stem cells [2] = experiment: Continuous cultivation of NSCs for 30 days, cell morphology (Example 7)
Protocol: As in Example 1, the NSCs were cultivated continuously and the growth media were replaced every seven days. DMSO-added growth media were used as the negative control. After 30 days, 100 μl of the cell suspension was aspirated and diluted to 1 ml. 250 μl of the supernatant was aspirated and placed on the slides coated with 30 μg/ml poly-D-lysine (Sigma). The cell morphology was observed thereafter under a microscope.

cortical neurons [3] = experiment: Neurite length of cortical neurons at low cellular density (Example 4); conditions: 38 cells/mm^2, 5 days, control cells all dead
Protocol: (§1) Cells obtained from the suspension prepared in Example 1 were cultivated at a density of 38 cells/mm^2 in 6-well plates coated with 30 μg/ml poly-D-lysine (Sigma) at 37° C., 5% CO2 and 95% relative humidity. The growth media contained compounds A, B, D, and G respectively and the growth media added with 5 μl of DMSO were used as control. The differentiated cells are categorically called cortical neurons.
The experiments were repeated three times. After cultivating for 5 days, the cells were observed under microscope and the length of the neurites was measured.

cortical neurons [4] = experiment: Survival of cortical neurons, MTT assay (Example 2); conditions: 300 cells/mm^2, 5 days, vs DMSO control
Protocol: as §1, with “cultivated” for “cultivated at a density of 38 cells/mm^2”, “μg/ml of” for “μg/ml”, “(Sigma) at 300 cells/mm^2 and cultivated” for “(Sigma)”, “D, E, F, G,” for “D,”, “and H” for “and G”, “cells after cultivation were” for “cells are”
The experiments were repeated three times. After cultivating for 5 days, live cells were counted by a known cell-counting method (MTT assay) and the absorbance was read at 540 nm.

neural stem cells [5] = experiment: Differentiation of NSCs with compound D and EGF, immunofluorescent staining (Example 6); conditions: compound D and EGF in the beginning, only the named substance at seeding
Protocol: The procedures were similar to Example 5. However, in the beginning of cultivating the neural stem cells, both compound D and EGF were added into the media. After all the cells had been attached onto the slides, the media were removed and replaced with the cultivating media containing compound D (FIG. 6B), EGF (FIG. 6C), none of the growth factors (FIG. 6D), or both compound D and EGF (FIG. 6A). The cells were cultivated for another 3 days and the cell morphology was observed thereafter by using immunofluorescent staining technique.

C/C(=C\Cc1c([C@@H]2CC(=O)c3c(O)cc(O)cc3O2)ccc(O)c1O)CCCC(C)(C)O [compound A]
cell type after differentiation (MAP-2 staining) (neural stem cells [1]): the cells will differentiate into neurons
sphere formation of neural stem cells after 30 days (neural stem cells [2]; media replaced every seven days, control almost no surviving cells): can maintain the characteristics of forming spherical clusters
differentiation after 30 days culture plus another 3 days (immunofluorescence) (neural stem cells [2]; neurospheres grown 30 days with compound): differentiating normally into neurons with the continuous outgrowth of neurites
growth of neurons and neurites under microscope (cortical neurons [3]; 2.5 μM): continuous growth of the neurons and the extension of the neurites can be observed
live cells, MTT absorbance at 540 nm (cortical neurons [4]): best results

C/C(=C\Cc1cc([C@@H]2CC(=O)c3c(O)cc(O)cc3O2)cc(O)c1O)CCCC(C)(C)O [compound B]
growth of neurons and neurites under microscope (cortical neurons [3]; 5 μM): continuous growth of the neurons and the extension of the neurites can be observed

CC(C)=CCC/C(C)=C/Cc1c([C@@H]2CC(=O)c3c(O)cc(O)cc3O2)ccc(O)c1O [compound D]
cell type after differentiation (neural stem cells [5]): the cells will differentiate into neurons
growth of neurons and neurites under microscope (cortical neurons [3]; 5 μM): continuous growth of the neurons and the extension of the neurites can be observed
live cells, MTT absorbance at 540 nm (cortical neurons [4]): best results

CC(C)=CCC/C(C)=C/Cc1c(O)cc2c(c1O)C(=O)C[C@@H](c1ccc(O)c(O)c1CC=C(C)C)O2 [compound G]
growth of neurons and neurites under microscope (cortical neurons [3]; 5 μM): continuous growth of the neurons and the extension of the neurites can be observed
live cells, MTT absorbance at 540 nm (cortical neurons [4]): best results
